Structures can show the parent of a compound that is named as a salt.
How the values were obtained:
Type in all cases: biochemical
[1] = target: T1, recombinant human sPLA2-IIA enzyme (Homo sapiens, UniProt P14555); assay: sPLA2-IIA enzyme inhibition assay (thio-PC substrate, DTNB detection, absorbance 410 nm); settings: class symbols; read-out: sPLA2 Type IIa Inhibition (IC50; nM)
T1 construct: made in house; host or cells: E. coli
T1 sequence (P14555 21-144): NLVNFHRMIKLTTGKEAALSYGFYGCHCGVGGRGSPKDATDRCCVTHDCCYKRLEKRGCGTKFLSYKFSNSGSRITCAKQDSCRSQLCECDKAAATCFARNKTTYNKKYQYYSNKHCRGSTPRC
Text: (§1) Screening Compounds for Inhibition of sPLA2-X, sPLA2-V, and sPLA2-IIA Enzyme Activity
(§2) These sPLA2 enzymes hydrolyze the sn-2 acyl chains of glycerophospholipids, resulting in the release of a free fatty acid and a lysophospholipid. In the case of the thio-PC substrate, this enzymatic hydrolysis results in a free sulfhydryl group remaining on the lysophospholipid. This free sulfhydryl reacts with DTNB to produce the chromogenic product 5-nitro-2-thiobenzoic acid (TNB) which can be quantitated by absorbance at 410 nm. The amount of TNB produced reflects the hydrolytic activity of the enzyme.
(§3) The recombinant human sPLA2 groups IIA, V, and X enzymes were expressed in E. coli and purified to >90% purity by standard biochemical methods.
(§4) Procedure of Enzyme Inhibition for sPLA2-X • 1. […] Dilute the test compounds in 100% DMSO by half-log steps in a 96-well dilution plate using columns 1-11 (one compound per row). Column 12 contains DMSO alone with no compound. • 3. Prepare a 3.5 mM thio-PC substrate solution by drying down 7.2 mg of stock thio-PC in ethanol under a gentle stream of N2 gas. When dry, add 4 mL assay buffer (25 mM Tris, pH7.4; 100 mM KCl; 10 mM CaCl2; 0.1% Triton X-100) and warm in a 37° C. water bath for 20 minutes with intermittent vortexing. • 4. Prepare an “enzyme containing” reaction mix with the following components: 20.4 mL assay buffer; 2 mL DTNB (20 mM in 800 mM Tris, pH8.0); and 11.8 mg recombinant human sPLA2-X enzyme (>95% pure) diluted to a total of 0.8 mL assay buffer. • 5. Prepare a “no enzyme” reaction mix with the following components: 477 μL assay buffer and 45 μL DTNB. • 6. Dispense 58 μL “no enzyme” reaction mix into each of 8 wells (columns 23 and 24, rows M-P). • 7. Dispense 58 μL “enzyme containing” reaction mix into all remaining wells on the plate. • 8. From the 96-well compound dilution plate, add 2 μL from each well for each compound to each of 4 wells with “enzyme containing” reaction mix. Columns 23 and 24 on the assay plate will contain only DMSO (vehicle control). […] After compound addition, mix the contents of each well to ensure that the DMSO is evenly distributed in the well. • 9. Cover the plate and incubate in the dark at room temperature for 15 minutes. • 10. Add 10 μL of thio-PC substrate to all wells. The final concentration of thio-PC in the reactions is 0.5 mM. • 11. Cover the plate and incubate in the dark at room temperature for 30 minutes. • 12. Measure the absorbance of all wells at 410 nm. • 13. Determine the mean absorbance of the “no enzyme” wells. Subtract this value from the absorbance values determined for all other wells (these are now background corrected data). • 14. […] Procedure of Enzyme Inhibition for sPLA2-V • 1. […] Dilute the test compounds in 100% DMSO by half-log steps in a 96-well dilution plate using columns 1-11. Column 12 contains DMSO alone with no compound. • 3. Prepare a 3.5 mM thio-PC substrate solution by drying down 7.2 mg of stock thio-PC in ethanol under a gentle stream of N2 gas. When dry, add 4 mL assay buffer (25 mM Tris, pH7.4; 100 mM KCl; 10 mM CaCl2; 0.1% Triton X-100) and warm in a 37° C. water bath for 20 minutes with intermittent vortexing. • 4. Prepare an “enzyme containing” reaction mix with the following components: 20.4 mL assay buffer; 2 mL DTNB (20 mM in 800 mM Tris, pH8.0); and 12 mg recombinant human sPLA2-V enzyme (>95% pure) diluted to a total of 0.8 mL assay buffer. • 5. Prepare a “no enzyme” reaction mix with the following components: 477 μL assay buffer and […]. • 6. Dispense 58 μL “no enzyme” reaction mix into each of 8 wells (columns 23 and 24, rows M-P). • 7. Dispense 58 μL “enzyme containing” reaction mix into all remaining wells on the plate. • 8. From the 96-well compound dilution plate, add 2 μL from each well for each compound to each of 4 wells with “enzyme containing” reaction mix. Columns 23 and 24 on the assay plate will contain only DMSO (vehicle control).

[2] = target: T2, recombinant human sPLA2-V enzyme (Homo sapiens, UniProt P39877); assay: sPLA2-V enzyme inhibition assay (thio-PC substrate, DTNB detection, absorbance 410 nm); settings: class symbols; read-out: sPLA2 Type V Inhibition (IC50; nM)
T2 construct: made in house; host or cells: E. coli
T2 sequence (P39877 21-138): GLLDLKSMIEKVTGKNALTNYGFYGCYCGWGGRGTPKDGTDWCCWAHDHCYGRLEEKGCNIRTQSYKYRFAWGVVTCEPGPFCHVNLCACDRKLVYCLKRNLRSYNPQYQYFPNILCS
Text: as §1, §2, §3, §4

[3] = target: T3, sPLA2-X protein (Homo sapiens, UniProt O15496); assay: sPLA2-X enzyme inhibition assay (thio-PC substrate, DTNB detection, absorbance 410 nm); set-up: made in house; host or cells: E. coli; settings: class symbols; read-out: sPLA2 Type X Inhibition (IC50; nM)
T3 sequence (O15496 43-165): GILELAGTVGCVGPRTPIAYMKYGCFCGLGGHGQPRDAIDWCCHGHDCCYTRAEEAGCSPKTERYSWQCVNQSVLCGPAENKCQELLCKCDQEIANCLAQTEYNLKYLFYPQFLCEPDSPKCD
Text: as §1, §2, §3, §4

NC(=O)c1cc2ccc(OC(F)(F)F)cc2n1-c1ccc2c(c1)C(CC(=O)O)CO2 (stereo not drawn) [Compound 1, 2-(5-(2-carbamoyl-6-(trifluoromethoxy)-1H-indol-1-yl)-2,3-dihydrobenzofuran-3-yl)acetic acid]
IC50 [1]: > 1000 nM | IC50 [2]: > 5000 nM | IC50 [3]: 50 to 200 nM

CC(C)(Sc1cccc(-n2c(C(N)=O)cc3ccc(OC(F)(F)F)cc32)c1)C(=O)O [Compound 2, 2-((3-(2-carbamoyl-6-(trifluoromethoxy)-1H-indol-1-yl)phenyl)thio)-2-methylpropanoic acid]
IC50 [1]: 200 to 500 nM | IC50 [2]: 500 to 1500 nM | IC50 [3]: < 20 nM

CC(C)(Cc1cccc(-n2c(C(N)=O)cc3ccc(OC(F)(F)F)cc32)c1)C(=O)O [Compound 3, 3-(3-(2-carbamoyl-6-(trifluoromethoxy)-1H-indol-1-yl)phenyl)-2,2-dimethylpropanoic acid]
IC50 [1]: 500 to 1000 nM | IC50 [2]: 1500 to 5000 nM | IC50 [3]: < 20 nM

NC(=O)c1cc2ccc(OC(F)(F)F)cc2n1-c1cccc(SC2(C(=O)O)CCC2)c1 [Compound 4, 1-((3-(2-carbamoyl-6-(trifluoromethoxy)-1H-indol-1-yl)phenyl)thio)cyclobutane-1-carboxylic acid]
IC50 [1]: 200 to 500 nM | IC50 [2]: < 500 nM | IC50 [3]: < 20 nM

C/C(=C\C(=O)O)c1cccc(-n2c(C(N)=O)cc3ccc(OC(F)(F)F)cc32)n1 [Compound 6, (E)-3-(6-(2-carbamoyl-6-(trifluoromethoxy)-1H-indol-1-yl)pyridin-2-yl)but-2-enoic acid]
IC50 [1]: > 1000 nM | IC50 [2]: > 5000 nM | IC50 [3]: > 200 nM

NC(=O)c1sc2ccc(OC(F)(F)F)cc2c1-c1ccc2c(c1)C(CC(=O)O)CO2 (stereo not drawn) [Compound 7, 2-(5-(2-carbamoyl-5-(trifluoromethoxy)benzo[b]thiophen-3-yl)-2,3-dihydrobenzofuran-3-yl)acetic acid]
IC50 [1]: > 1000 nM | IC50 [2]: > 5000 nM | IC50 [3]: > 200 nM

CC(C)(Cc1cccc(-n2c(C(N)=O)cc3ccc(OC(F)(F)F)cc32)n1)C(=O)O [Compound 8, 3-(6-(2-carbamoyl-6-(trifluoromethoxy)-1H-indole-1-yl)pyridin-2-yl)-2,2-dimethylpropanoic acid]
IC50 [1]: > 1000 nM | IC50 [2]: > 5000 nM | IC50 [3]: 50 to 200 nM

NC(=O)c1cc2ccc(OC(F)(F)F)cc2n1-c1ccc2c(c1)OCC2CC(=O)O (stereo not drawn) [Compound 9, 2-(6-(2-carbamoyl-6-(trifluoromethoxy)-1H-indol-1-yl)-2,3-dihydrobenzofuran-3-yl)acetic acid]
IC50 [1]: > 1000 nM | IC50 [2]: > 5000 nM | IC50 [3]: > 200 nM

NC(=O)c1cc2ccc(OC(F)(F)F)cc2n1-c1cccc(CC2(C(=O)O)CCC2)c1 [Compound 10, 1-(3-(2-carbamoyl-6-(trifluoromethoxy)-1H-indol-1-yl)benzyl)cyclobutane-1-carboxylic acid]
IC50 [1]: 500 to 1000 nM | IC50 [2]: 500 to 1500 nM | IC50 [3]: 20 to 50 nM

CC(C)(C)OC(=O)N1CC(CC(=O)O)c2cc(-n3c(C(N)=O)cc4ccc(OC(F)(F)F)cc43)ccc21 (stereo not drawn) [Compound 11, 2-(1-(tert-butoxycarbonyl)-5-(2-carbamoyl-6-(trifluoromethoxy)-1H-indol-1-yl)indolin-3-yl)acetic acid]
IC50 [1]: > 1000 nM | IC50 [2]: > 5000 nM | IC50 [3]: 50 to 200 nM

NC(=O)c1cc2ccc(OC(F)(F)F)cc2n1-c1ccc2occ(CC(=O)O)c2c1 [Compound 12, 2-(5-(2-carbamoyl-6-(trifluoromethoxy)-1H-indol-1-yl)benzofuran-3-yl)acetic acid]
IC50 [1]: > 1000 nM | IC50 [2]: > 5000 nM | IC50 [3]: 50 to 200 nM

NC(=O)c1sc2ccccc2c1-c1cccc(CCC(=O)O)c1 [Compound 13, 3-(3-(2-carbamoylbenzo[b]thiophen-3-yl)phenyl)propanoic acid]
IC50 [1]: > 1000 nM | IC50 [2]: > 5000 nM | IC50 [3]: > 200 nM

CNC(=O)c1cc2ccc(OC(F)(F)F)cc2n1-c1cccc(CCC(=O)O)c1 [Compound 14, 3-(3-(2-(methylcarbamoyl)-6-(trifluoromethoxy)-1H-indol-1-yl)phenyl)propanoic acid]
IC50 [1]: > 1000 nM | IC50 [2]: > 5000 nM | IC50 [3]: > 200 nM

NC(=O)c1cc2ccc(OC(F)(F)F)cc2n1-c1ccc2oc(C(=O)O)cc2c1 [Compound 16, 5-(2-carbamoyl-6-(trifluoromethoxy)-1H-indol-1-yl)benzofuran-2-carboxylic acid]
IC50 [1]: > 1000 nM | IC50 [2]: > 5000 nM | IC50 [3]: 50 to 200 nM

NC(=O)c1oc2ccc(OC(F)(F)F)cc2c1-c1cccc(CCC(=O)O)c1 [Compound 17, 3-(3-(2-carbamoyl-5-(trifluoromethoxy)benzofuran-3-yl)phenyl)propanoic acid]
IC50 [1]: > 1000 nM | IC50 [2]: > 5000 nM | IC50 [3]: > 200 nM

NC(=O)c1cc2ccc(OC(F)(F)F)cc2n1-c1cccc(CCC(=O)O)n1 [Compound 18, 3-(6-(2-carbamoyl-6-(trifluoromethoxy)-1H-indol-1-yl)pyridin-2-yl)propanoic acid]
IC50 [1]: > 1000 nM | IC50 [2]: 1500 to 5000 nM | IC50 [3]: < 20 nM

NC(=O)c1cc2ccc(OC(F)(F)F)cc2n1-c1cccc(CC2(C(=O)O)CC2)c1 [Compound 19, 1-(3-(2-carbamoyl-6-(trifluoromethoxy)-1H-indol-1-yl)benzyl)cyclopropane-1-carboxylic acid]
IC50 [1]: > 1000 nM | IC50 [2]: > 5000 nM | IC50 [3]: > 200 nM

NC(=O)c1cc2ccc(OC(F)(F)F)cc2n1-c1ccc2occ(C(=O)O)c2c1 [Compound 20, 5-(2-carbamoyl-6-(trifluoromethoxy)-1H-indol-1-yl)benzofuran-3-carboxylic acid]
IC50 [1]: > 1000 nM | IC50 [2]: > 5000 nM | IC50 [3]: > 200 nM

NC(=O)c1cc2ccccc2n1-c1cccc(CCC(=O)O)c1 [Compound 21, 3-(3-(2-carbamoyl-1H-indol-1-yl)phenyl)propanoic acid]
IC50 [1]: > 1000 nM | IC50 [2]: > 5000 nM | IC50 [3]: > 200 nM

CC(C)(CC(=O)O)c1cccc(-n2c(C(N)=O)cc3ccc(OC(F)(F)F)cc32)c1 [Compound 22, 3-(3-(2-carbamoyl-6-(trifluoromethoxy)-1H-indol-1-yl)phenyl)-3-methylbutanoic acid]
IC50 [1]: > 1000 nM | IC50 [2]: 1500 to 5000 nM | IC50 [3]: < 20 nM

NC(=O)c1cc2ccc(OC(F)(F)F)cc2n1-c1cccc(C[C@@H](N)C(=O)O)c1 [Compound 23, (R)-2-amino-3-(3-(2-carbamoyl-6-(trifluoromethoxy)-1H-indol-1-yl)phenyl)propanoic acid TFA salt]
IC50 [1]: > 1000 nM | IC50 [2]: > 5000 nM | IC50 [3]: > 200 nM
